# Experimental data reported in US20250152580A1, “METHODS FOR TREATING IMMUNE DISEASES” (Ascentage Pharma (Suzhou) co., Ltd., priority 2022, published 2025).
# “Also recorded” adds a separate entry of the source.
# Tested on: IMQ induced psoriasis model
# Assay: IMQ induced psoriasis model in Balb/c mice
# Assay type: in vivo
# Settings: Cpd. 4 100 mg/kg po qd day 0-6
# From the text: Imiquimod (IMQ) is a ligand for TLRs (Toll-like receptors) of immune cells (including macrophages, monocytes and plasmacytoid dendritic cells), and therefore contributes to strong activation of the immune system.
# Female Balb/c mice (7-8 weeks old) were obtained from B&K Universal Animal Co. Ltd. Animals were housed and handled in a temperature-controlled environment with a 12-h light/12-h dark cycle. A total of 36 mice were assigned to 4 groups by randomization based on body weight (6 mice in normal control group and 10 mice in other 3 groups).
# At the beginning of the study on day 0, five groups were administered a daily topical dose of 80 mg of a cream preparation containing 5% IMQ on their hair-free backs to establish a model of IMQ-induced psoriasis for seven consecutive days. The G1 normal control group received appropriate vaseline.
# Mice in Group 1 and Group 2 were treated with vehicle for 7 days (po, qd, from day 0 to day 6). Mice in Group 3 were treated with 100 mg/kg Cpd. 4 for 7 days (po, qd, from day 0 to day 6). Mice in Group 4 were treated with 30 mg/kg tofacitinib for 7 days (po, bid, from day 0 to day 6). The protocols and procedures involving the care and use of animals were approved by the Institutional Animal Care and Use Committee (IACUC) at KCI (Suzhou, China).
# The severity of skin inflammation was monitored and graded using a modified human scoring system Psoriasis Area Severity Index (PASI). Scaling, thickness, and erythema were scored separately on a scale from 0 to 4:0, none; 1, slight; 2, moderate; 3, marked; and 4, very marked. The total score denotes severity of inflammation. Ear thickness of mice was measured every day from day 0 to day 7.
# Ear thickness of mice was measured every day from day 0 to day 7. […] Compared with G1 normal control group, after IMQ treatment, ear swelling was observed indicated by increased ear thickness in G2 group reaching the maximal ear thickness to 0.40±0.02 mm on day 7. Cpd.
smiles,measurement,setting,value
"O=C(NS(=O)(=O)c1ccc(NC[C@H]2COCCO2)c([N+](=O)[O-])c1)c1ccc(N2CCN(CC3=C(c4ccc(Cl)cc4)CC4(CCC4)CC3)CC2)cc1Oc1cnc2[nH]ccc2c1 [Cpd. 4, (S)-N-((4-(((1,4-dioxan-2-yl)methyl)amino)-3-nitrophenyl)sulfonyl)-2-((1H-pyrrolo[2,3-b]pyridin-5-yl)oxy)-4-(4-((6-(4-chlorophenyl)spiro[3.5]non-6-en-7-yl)methyl)piperazin-1-yl)benzamide]",ear thickness,compared with Vehicle (0.40±0.02 mm day 7) and tofacitinib 30 mg/kg po bid,significantly reducing the ear thickness; also recorded: comparable to that of tofacitinib; also recorded: significantly reduced
same,PASI score (Psoriasis Area Severity Index),"tofacitinib 30 mg/kg po bid, compared with Vehicle",significantly reducing the clinical PASI score; also recorded: significantly reduced
